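How tested: cells in 96-well plates exposed to compound for 48 hours at five concentrations. The concentration for 50% growth inhibition is given as GI50. TGI marks complete inhibition of growth.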

Holding throughout (assay): growth of human tumour cells (NCI), 48 h
Experiment [1] deals with HS 578T breast.
In experiment [2] the test system is MALME-3M melanoma.
Experiment [3] deals with MDA-MB-435.
In experiment [4] the test system is NCI-H23 lung.
The subject of experiment [5] is OVCAR-8 ovarian.
Experiment [6] relates to T-47D breast.
Experiment [7] concerns UACC-62 melanoma.
The test system of experiment [8] is HCT-116 colon.
Experiment [9] relates to M14 melanoma.
The subject of experiment [10] is SF-268 CNS.

With `CCCCCCCCCCCCCCCC1=NCCN1`, the GI50 in [1] was 2.22 µM; in [2] it was 2.38 µM; in experiment [3], 1.7 µM; in experiment [4], 2.04 µM; in [5], 2.67 µM; in experiment [6], 2.14 µM. For the same compound, the GI50 in experiment [7] was 2.3 µM. The TGI in experiment [1] is 6 µM; in experiment [2] it was 6.46 µM; in experiment [3], 3.26 µM; in experiment [4], 4.78 µM; in experiment [5], 6.92 µM; in experiment [6], 5.65 µM. The TGI in experiment [7] turned out to be 4.94 µM.
On to `COC(=O)c1ccc2c(c1)C(=O)c1c-2n(CCCCl)c(=O)c2cc([N+](=O)[O-])ccc12`, for which the GI50 in experiment [8] was 42.1 µM; in experiment [1], over 100 µM; in experiment [9], 82.5 µM; in experiment [2] it was over 100 µM; in experiment [3] it was over 100 µM; in experiment [4], 94.6 µM. Besides, the GI50 is over 100 µM in experiment [5], 42.2 µM in [10], 92 µM in [6] and 27.5 µM in experiment [7]. In addition, the TGI in experiment [8], in experiment [1], in experiment [9], in experiment [2], in experiment [3] and in [4] was over 100 µM in each case. Further, the TGI in [5], in experiment [10], in experiment [6] and in experiment [7] was over 100 µM throughout.
As to `CC1=C2CC(C)(C)/C=C\C(=O)/C(C)=C\C3=C[C@H](C)C[C@]3(O2)C1=O`, the TGI in experiment [8] amounted to 1.09 µM; in experiment [1], 22.3 µM; in [9], 1.27 µM; in experiment [2], 2.34 µM; in [3], 1.66 µM; in experiment [4] it was 3.76 µM. The TGI in experiment [5] came to 6.82 µM; in experiment [10] it was 18.4 µM; in [6], 1.65 µM; in experiment [7] it was 3.37 µM.
`COc1ccc(C#Cc2ccc(=O)oc2-c2cc(OC)c(OC)c(OC)c2)cc1O`: the GI50 in experiment [8] was 3.28 µM; in experiment [1], 7.4 µM; in [9] it was 4.33 µM; in experiment [2], 10.2 µM; in experiment [3] it was 0.234 µM; in experiment [4], 10.7 µM. Further, the GI50 in experiment [5] was 10.6 µM; in experiment [10] it was 7.23 µM; in experiment [7], 5.53 µM. Further, the TGI was over 100 µM in experiment [8]; over 81.9 µM in experiment [1]; over 51.6 µM in experiment [9]; over 83.7 µM in experiment [2]; 2.78 µM in [3]; over 100 µM in experiment [4]. Besides, the TGI is over 100 µM in [5], over 90.8 µM in experiment [10], over 100 µM in [6] and over 100 µM in experiment [7].
Regarding `O=C(CC1(O)C(=O)N(Cc2ccccc2)c2ccc(Cl)cc21)c1ccc(C(=O)NCC2CCC3(CC2)OOC2(CCCCC2)OO3)cc1` (centres undefined), the GI50 in experiment [8] was 1.3 µM; in experiment [1] it was 2.11 µM; in experiment [9], 2.52 µM; in [2] it was 0.209 µM; in experiment [3], 0.394 µM; in [4], 0.204 µM. For the same compound, the GI50 in experiment [5] was 0.295 µM; in experiment [10], 1.4 µM; in experiment [6], 0.653 µM; in experiment [7], 6.26 µM. Moreover, the TGI in experiment [8] came to 4.29 µM; in experiment [1], 11.6 µM; in experiment [9], 17.3 µM; in [2], 0.537 µM; in [3], 1.4 µM; in experiment [4], 0.477 µM. Moreover, the TGI in [5] was 0.758 µM; in experiment [10], 3.67 µM; in experiment [6] it was 3.38 µM; in [7], 77.7 µM.
Consider `O=C1C(=C(C(F)(F)Cl)C(F)(F)Cl)C2CCC1C2` (centres undefined), for which the TGI in [8] is 3.61 µM; in experiment [1], over 10 µM; in experiment [9] it was 2.38 µM; in experiment [2], 3.2 µM; in experiment [3], 3.81 µM; in [4], 4.63 µM. Moreover, the TGI was 4.24 µM in experiment [5], over 6.62 µM in [10], 4.58 µM in experiment [6] and 4.4 µM in experiment [7].
For `Cc1ccc2oc(=O)cc(/C(=C3/C=CC=N3)c3ccc[nH]3)c2c1`, the GI50 in experiment [8] was 0.375 µM; in [1] it was 0.391 µM; in experiment [9], 0.209 µM; in [2], 0.782 µM; in experiment [3], 0.211 µM; in [4], 0.484 µM. In addition, the GI50 was 0.304 µM in experiment [5], 0.526 µM in [10], 0.445 µM in [6] and 0.373 µM in [7]. The TGI was 1.79 µM in [8]; 4.7 µM in experiment [1]; 0.548 µM in [9]; 3.82 µM in [2]; 0.544 µM in experiment [3]; 3.66 µM in [4]. Besides, the TGI in experiment [5] worked out at 1.07 µM; in [10], 6.73 µM; in [6], 7.66 µM; in experiment [7] it was 1.98 µM.
`CC(=O)O[C@H]([C@H](OC(C)=O)[C@H](C)OC(C)=O)[C@@H](/C=C/[C@@H]1CC=CC(=O)O1)OC(C)=O`: the GI50 in experiment [8] was 33.4 µM; in [1], 54.7 µM; in [9], 42.6 µM; in experiment [2], over 100 µM; in experiment [3], 19.8 µM; in [4], 35.6 µM. The GI50 in experiment [5] is 40.6 µM; in experiment [10], 28.9 µM; in [6], 27.4 µM; in experiment [7], over 100 µM. The TGI in experiment [8], in [1], in experiment [9], in experiment [2], in [3] and in experiment [4] was over 100 µM each time. Further, the TGI in experiment [5], in experiment [10], in experiment [6] and in experiment [7] was over 100 µM throughout.
Consider `CC1(C)S[C@@H]2[C@H](N3C(=O)c4ccccc4C3=O)CN2[C@H]1NC(=O)N[C@@H]1N2C[C@@H](N3C(=O)c4ccccc4C3=O)[C@H]2SC1(C)C`, for which the TGI in [8], in experiment [1], in experiment [9], in [2], in experiment [3] and in [4] was over 100 µM throughout. For the same compound, the TGI in [5] was over 100 µM; in [10], 81.3 µM; in experiment [6], over 100 µM; in [7] it was over 100 µM.
On to `NC(=NCc1ccccc1)C(N=Nc1ccccc1)C(=O)NCc1ccccc1` (centres undefined), for which the GI50 is 1.76 µM in [8]; 2.92 µM in experiment [1]; 5.71 µM in experiment [9]; 21.5 µM in [2]; 5.51 µM in [3]; 5 µM in experiment [4]. For the same compound, the GI50 was 3.56 µM in experiment [5], 2.53 µM in experiment [10], 13.6 µM in experiment [6] and 16.5 µM in [7]. Further, the TGI is 3.47 µM in [8]; 13.9 µM in experiment [1]; 22.3 µM in experiment [9]; 48.2 µM in experiment [2]; 25.5 µM in experiment [3]; 21.9 µM in experiment [4]. The TGI in experiment [5] was 15.2 µM; in experiment [10], 6.44 µM; in [6], 35.4 µM; in [7], 37.6 µM.
Turning to `COc1cc(Oc2c(C)c(Cl)c(OC)c(Cl)c2OC)c2c(c1Cl)COC2=O`, the TGI in experiment [8], in experiment [1], in experiment [9], in [2], in experiment [3] and in experiment [4] was over 100 µM each time. Besides, the TGI in [5], in experiment [10], in experiment [6] and in experiment [7] was over 100 µM each time.
As for `COC(=O)C1=C(O)[C@H](C(=O)OC)C2(O)C(C(=O)OC)[C@H](c3ccc(OC(=O)C(C)c4ccccc4)cc3)C[C@@H]1[C@@H]2C(=O)OC` (some centres undefined), the GI50 in experiment [8] was 17.3 µM; in [1], 10.3 µM; in [9], 34.9 µM; in experiment [3] it was 10.4 µM; in experiment [4], 12.5 µM; in [5], 15 µM. Further, the GI50 was 17.2 µM in experiment [10], 12.3 µM in experiment [6] and 16.9 µM in experiment [7]. In addition, the TGI in experiment [8] was over 50 µM; in experiment [1], 34.1 µM; in experiment [9], over 50 µM; in experiment [3], 25.1 µM; in experiment [4], 29.2 µM; in experiment [5], over 50 µM. Also, the TGI in [10], in [6] and in experiment [7] was over 50 µM in each case.
Regarding `COc1cc2c(c(OC)c1OC)-c1ccc(O)cc1[C@@H](NC(C)=O)CC2`, the GI50 in [8] is 0.0395 µM; in [1] it was 0.0371 µM; in [9] it was 0.033 µM; in experiment [3] it was 0.0206 µM; in experiment [4], 0.0544 µM; in experiment [5] it was 0.0562 µM. Also, the GI50 is 0.0641 µM in experiment [10], 0.0495 µM in experiment [6] and 0.0582 µM in [7]. In addition, the TGI in [8] is over 100 µM; in experiment [3], 0.0463 µM; in experiment [4], over 100 µM; in experiment [5], over 100 µM; in experiment [10] it was over 29.1 µM; in [6], over 100 µM. Besides, the TGI in [7] is over 100 µM.
Turning to `O=C1C(Cl)=C(Nc2ccc(Nc3ccccc3)c(NC3=C(Cl)C(=O)c4ccccc4C3=O)c2)C(=O)c2ccccc21`, the GI50 in [1] is 1.87 µM; in [9], 4.55 µM; in experiment [2], 2.5 µM; in experiment [3] it was 25 µM; in [4] it was 19.6 µM; in [5], 4.08 µM. Moreover, the figures for the GI50 in [10], in experiment [6] and in experiment [7] were 3.63 µM, 1.95 µM and 3.46 µM, respectively. The TGI is 6.36 µM in [1]; over 100 µM in experiment [9]; 5.71 µM in experiment [2]; over 100 µM in experiment [3]; over 100 µM in experiment [4]; over 100 µM in experiment [5]. Moreover, the TGI in experiment [10] came out at 18.8 µM; in experiment [6] it was 4.75 µM; in experiment [7] it was 13.2 µM.
With `Nc1c(C(=O)Nc2ccccc2)sc2nc3c(cc12)CCCCC3`, the GI50 in experiment [8] is 0.46 µM; in [1] it was 0.669 µM; in experiment [9] it was 0.278 µM; in experiment [3] it was 0.205 µM; in experiment [4], 0.874 µM; in experiment [5], 1.51 µM. In addition, the GI50 is 1.1 µM in [10], 0.834 µM in experiment [6] and 0.41 µM in [7]. The TGI is over 100 µM in [8]; 31.3 µM in experiment [1]; 0.945 µM in [9]; 0.522 µM in experiment [3]; 97.3 µM in [4]; over 100 µM in [5]. In addition, the TGI was found to be 54.4 µM in [10], 80.6 µM in [6] and 19.4 µM in [7].
With `Oc1ccc(O)c(-c2cn3c(n2)SCC3)c1`, the GI50 in [8] was 3.07 µM; in [1], 18.6 µM; in [9], 15.5 µM; in [3], 15.8 µM; in experiment [4], 24.4 µM; in [5] it was 19.7 µM. Further, the GI50 in experiment [10] is 28.7 µM; in experiment [6], 17.5 µM; in experiment [7], 11.2 µM. Also, the TGI in experiment [8] amounted to 7.81 µM; in experiment [1] it was 90.7 µM; in [9], 31.3 µM; in [3], 35.2 µM; in experiment [4], 73.4 µM; in experiment [5], 52.1 µM. In addition, the TGI in experiment [10] was over 100 µM; in experiment [6], 42.2 µM; in [7], 24.7 µM.
`Cc1c(O)c(N=Nc2nc3ccccc3s2)c2ccccc2c1O`: the GI50 in experiment [8] was 22.6 µM; in experiment [1] it was 28.9 µM; in experiment [9], 33.5 µM; in [3] it was 19.8 µM; in experiment [4], 13.9 µM; in experiment [5], 19.7 µM. Besides, the values for the GI50 in experiment [10], in experiment [6] and in [7] were 18.2 µM, 39.2 µM and 15.3 µM, respectively. Besides, the TGI in [8], in [1], in experiment [9], in experiment [3], in experiment [4] and in experiment [5] was over 50 µM in each case. Moreover, the TGI in experiment [10], in experiment [6] and in [7] was over 50 µM throughout.

The values are drawn from PubChem BioAssay (NCI).
